According to PubChem BioAssay (NCI):
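These data come from cells grown in 96-well plates and exposed to compound for 48 hours at five concentrations. TGI: concentration producing complete growth inhibition.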

Assays:
Experiment in all cases: NCI anticancer screen, dose series, 48 h
SF-539 CNS = system: SF-539 CNS
MOLT-4 leukemia = system: MOLT-4 leukemia
U251 CNS = system: U251 CNS
HT29 colon = system: HT29 colon
HS 578T breast = system: HS 578T breast
HCC-2998 colon = system: HCC-2998 colon
DU-145 prostate = system: DU-145 prostate
786-0 renal = system: 786-0 renal
K-562 leukemia = system: K-562 leukemia
SW-620 colon = system: SW-620 colon
OVCAR-8 ovarian = system: OVCAR-8 ovarian
OVCAR-4 ovarian = system: OVCAR-4 ovarian
SF-268 CNS = system: SF-268 CNS
SK-OV-3 ovarian = system: SK-OV-3 ovarian
ACHN renal = system: ACHN renal
OVCAR-5 ovarian = system: OVCAR-5 ovarian
SK-MEL-2 melanoma = system: SK-MEL-2 melanoma
A498 renal = system: A498 renal
NCI-H226 lung = system: NCI-H226 lung

| SMILES | TGI (SF-539 CNS) [µM] | TGI (MOLT-4 leukemia) [µM] | TGI (U251 CNS) [µM] | TGI (HT29 colon) [µM] | TGI (HS 578T breast) [µM] | TGI (HCC-2998 colon) [µM] | TGI (DU-145 prostate) [µM] | TGI (786-0 renal) [µM] | TGI (K-562 leukemia) [µM] | TGI (SW-620 colon) [µM] | TGI (OVCAR-8 ovarian) [µM] | TGI (OVCAR-4 ovarian) [µM] | TGI (SF-268 CNS) [µM] | TGI (SK-OV-3 ovarian) [µM] | TGI (ACHN renal) [µM] | TGI (OVCAR-5 ovarian) [µM] | TGI (SK-MEL-2 melanoma) [µM] | TGI (A498 renal) [µM] | TGI (NCI-H226 lung) [µM] |
| --- | --- | --- | --- | --- | --- | --- | --- | --- | --- | --- | --- | --- | --- | --- | --- | --- | --- | --- | --- |
| CN(/N=C/c1cccs1)c1ccc([N+](=O)[O-])cc1[N+](=O)[O-] | > 100 | > 100 | > 100 | > 100 | > 100 | > 100 | > 100 | > 100 | > 100 | > 100 | > 100 | > 100 | > 100 | > 100 | > 100 |  |  |  |  |
| CC(C)CNC(=O)Cn1c2c(c3ccccc31)CCCC2 | > 100 | > 100 |  | > 100 | > 100 | > 100 |  | 61.2 | > 100 | > 100 | > 100 | > 100 | > 100 | > 100 | > 100 | > 100 | > 100 | 85 |  |
| CC1CC/C(=C\c2ccc(N(C)C)cc2)C(=O)/C1=C/c1ccc(N(C)C)cc1 (stereo unspecified) | > 100 | > 100 | > 100 | > 100 |  | > 100 |  | > 100 | > 100 | > 100 | > 100 | > 100 |  | > 100 | > 100 | > 100 | > 100 | > 100 | > 100 |
| COc1ccc(NCC(=O)Nn2c(C)nc3ccc(S(=O)(=O)Nc4ccc(OC)cc4)cc3c2=O)cc1 | > 100 | > 100 | > 100 | > 100 | > 100 | > 100 | > 100 | > 100 | > 100 | > 100 | > 100 | > 100 | > 100 | > 100 | > 100 | > 100 | > 100 |  | > 100 |
| c1ccc2c(c1)CCN2CCc1c[nH]c2ccccc12 | > 10 | > 10 | > 10 | > 10 | > 10 | > 10 | > 10 | > 10 | > 10 | > 10 | > 10 | > 10 | > 10 | > 10 | > 10 | > 10 | > 10 |  | > 10 |
| C=CC12CN(C)C3C4COC(CC41)C1(C(=O)Nc4ccccc41)C32 (stereo unspecified) | > 200 | > 200 | > 200 | > 200 |  | > 200 |  |  | > 200 | > 200 | > 200 | > 200 | > 200 | > 82.4 |  | > 200 | > 200 | > 200 | > 200 |
| CN1C(=O)C(O)CC1c1cccc(F)c1 (stereo unspecified) | > 100 | > 100 | > 100 | > 100 |  | > 100 | > 100 | > 100 | > 100 | > 100 | > 100 | > 100 |  | > 100 | > 100 | > 100 | > 100 | > 100 | > 100 |
| COc1cc(/C=C/C2=NN(c3cccc(S(=O)(=O)O)c3)C3(C2)C(Cl)C(=O)N3c2nc3ccccc3s2)ccc1O (stereo unspecified) | 46 | 44.9 | 40.7 | 40.8 | > 100 | 38.2 |  | 32.2 | 61.9 | 48 | 40.8 | 30.4 | 50.5 |  | 30.9 | 37.9 | > 100 | > 100 | 52.6 |
| CC(=O)O[C@]12CCC[C@H]1C1(O)C(O)CCC[C@H]12 (stereo partly specified) |  | > 100 | > 100 | > 100 |  |  |  | > 100 | > 100 | > 100 | > 100 | > 100 | > 100 | > 100 | > 100 |  | > 100 |  | > 100 |
| Cc1ccc(C(=O)C#Cc2cn(C3CC(O)C(CO)O3)c(=O)[nH]c2=O)cc1 (stereo unspecified) | > 100 |  | > 100 | > 100 | > 100 | > 100 | > 100 | > 100 |  | 89.2 | > 100 | > 100 | > 100 | > 100 | > 100 |  | > 100 |  | > 100 |
| CC(Oc1ccc(OCC2CCCCC2)cc1)C(=O)N(CCO)CCO (stereo unspecified) | 39.8 | > 100 | > 100 | > 100 |  | > 100 |  | > 100 | > 100 |  | > 100 | > 100 | > 100 | > 100 | > 100 |  | > 100 | > 100 | > 100 |
| CCOC(=O)C(NC(=O)NC(C(=O)OCC)C(=O)OCC)C(=O)OCC | > 100 | > 100 | > 100 | > 100 | > 100 | > 100 | > 100 | > 100 | > 100 | > 100 | > 100 |  | > 100 | > 100 | > 100 | > 100 | > 100 |  | > 100 |
| CC(CCc1ccc2c(c1)c(=N)c1ccc(N)cc1n2O)CC(C)(C)C (stereo unspecified) |  |  | 2.67 |  |  |  |  | 2.82 | 3.13 | 3.07 |  |  | 4.23 |  | 3.14 | 2.93 | 3.31 | 3.51 |  |
| CC(C)N1CSC(=S)N(Cc2ccccc2)C1 | 3.35 | 7.43 | > 10 | 6.04 | > 10 | > 10 |  |  | > 10 | > 10 | > 10 | > 10 | > 10 | > 10 | > 10 |  |  | > 10 |  |
| O=Cc1cc2c(o1)C(=O)c1ccccc1C2=O | 2.25 | 4.56 | 2.73 | 2.12 |  | 3.43 | 0.427 | 2.9 |  | 1.02 | 2.72 | 2.26 | 4.13 | 9.57 | 7.96 | 3.25 | 4.2 | 9.44 | 2.27 |
| Cn1c(=O)nc2n(-c3ccc(Cl)cc3Cl)c3ccccc3nc-2c1=O | 19.3 | 35.7 | 19 | 10.3 |  | 14.5 |  |  | 22.6 |  | 14.1 | 15.4 | 76 | 72.8 |  | 49 | 17.4 |  |  |
| COC(=O)[C@@]12OC[C@]34C([C@@H](O)C1O)[C@@]1(C)CC(=O)C(O)=C(C)C1C[C@H]3OC(=O)[C@H](OC(=O)CC(C)C(F)(F)F)[C@H]42 (stereo partly specified) | 0.067 | 0.312 | 0.214 | 0.146 |  | 0.0599 |  | 0.708 |  | 1.37 | 0.491 | 0.561 | 0.644 | 0.531 | 0.301 | 1.18 | 0.362 | 0.121 | 0.0338 |
| COC1OC(COC(=O)NCCCCC(=O)C(F)(F)F)C(O)C(O)C1O (stereo unspecified) | > 100 | > 100 | > 100 | > 100 | > 100 | > 100 | > 100 | > 100 | > 100 | > 100 |  | > 100 | > 100 | > 100 | > 100 | > 100 | > 100 |  |  |
| O=C1C(N=Nc2ccc(-c3nc4ccccc4o3)cc2)NC(=S)N1c1ccccc1 (stereo unspecified) | > 100 | > 100 | > 100 | > 100 | > 100 | > 100 | > 100 | > 100 | > 100 | > 100 | > 100 | > 100 | > 100 | > 100 | > 100 | > 100 | > 100 |  | > 100 |
| CCOC(CCCN1CCC2(CC1)C(=O)N(C)CN2c1ccccc1)(OCC)c1ccc(F)cc1 | 13.7 | 22.6 | 26.3 | 14 |  | 21.3 | 46.5 | 27.7 | 33 | 28.7 | 33.6 |  | 29.7 | 46.8 | 28.6 | 21.6 |  |  | 33.6 |
| O=C(Nc1ccc([N+](=O)[O-])cc1)C(=O)C(C(=O)c1ccccc1F)C1OC(=O)c2ccccc21 (stereo unspecified) | 56 | > 100 | 39.9 | > 100 |  | 41.4 |  |  | > 100 | > 100 | > 100 | > 100 | > 100 | > 100 | > 100 | > 100 | 71.6 | > 100 | 59.8 |
| CCOC(=O)C(O)(NC(=O)Nc1ccc(F)cc1)C(F)(F)F (stereo unspecified) | > 100 | > 100 | > 100 | > 100 | > 100 | > 100 |  | > 100 | > 100 | > 100 | > 100 |  | > 100 | > 100 | > 100 | > 100 | > 100 | > 100 |  |
